Patent US5753458A, “Acylation method for penicillins and cephalosporins” (Gist-Brocades B.V., priority 1994, dated 1998)

Columns and labels:
Type in all cases: biochemical
[1] = biological target: T1, immobilized penicillin G acylase from E. coli (Escherichia coli, UniProt P06875); experiment: Enzymatic amoxicillin synthesis with immobilized Pen G acylase, L-(+)-mandelic acid varied (Example 6); conditions: enzyme 12.0 U/ml
Text: (§1) V0 (Amox) is the initial velocity of Amox formation, and V0 (D-HPG) is the initial velocity of D-HPG formation, specified as μmoles/min/g enzyme, μmoles/min/ml reaction mixture, or nmoles/min/U (enzyme activity).
(§2) The ratio X is defined as the number of moles of D-HPGA consumed per mole of Amox produced. For practical use this can be transformed to X=1+moles D-HPG/moles Amox, wherein "moles D-HPG" is the molar amount of D-HPG produced by hydrolysis of the acylating agent and the desired product and "moles Amox" is the molar amount of Amox present in the reaction mixture. Thus, if X is 1 this means that only the desired synthesis takes place, no hydrolysis. If X is 2, this means that D-HPG and Amox are formed in equal amounts (on a molar basis). If X is 3, this means that twice as much D-HPG as Amox is present in the reaction mixture (on a molar basis). The ratio X can be calculated at any time during reaction, but in the following examples X is calculated at the reaction stop time, which is defined as the time at which 90 % of the theoretical yield of Amox is present in the reaction mixture (based on the inserted amount of 6-APA). Square brackets are used to designate molar concentrations.
(§3) In Examples 1-8 the following standard conditions for enzymatic amoxicillin synthesis have been used (see patent application No. WO 92/01061 for further details):
(§4) During the reactions, the pH value of the reaction mixtures was kept constant by titration with 2M sulphuric acid.
(§5) Representative samples of the reaction mixtures including solid constituents were taken at regular intervals during the reactions and analyzed by HPLC.
A standard synthesis (immobilized penicillin G acylase from E. coli; enzyme dosing 12.0 U/ml) was carried out with no L-(+)-mandelic acid added.
Same conditions as in Experiment A were employed, except that L-(+)-mandelic acid was added to the reaction mixture at the beginning of the experiment in amounts as specified in Table 6. A side product obtained was α-hydroxybenzylpenicillin.

[2] = biological target: T2, agarose based penicillin G acylase immobilizate (Escherichia coli, UniProt P06875); experiment: Enzymatic amoxicillin synthesis with varying enzyme amounts and constant Phox (Example 4); conditions: [Phox] 31 μM
T2 construct: processed alpha/beta heterodimer cut from one precursor (signal and spacer peptides removed)
T2 sequence (P06875 290-846): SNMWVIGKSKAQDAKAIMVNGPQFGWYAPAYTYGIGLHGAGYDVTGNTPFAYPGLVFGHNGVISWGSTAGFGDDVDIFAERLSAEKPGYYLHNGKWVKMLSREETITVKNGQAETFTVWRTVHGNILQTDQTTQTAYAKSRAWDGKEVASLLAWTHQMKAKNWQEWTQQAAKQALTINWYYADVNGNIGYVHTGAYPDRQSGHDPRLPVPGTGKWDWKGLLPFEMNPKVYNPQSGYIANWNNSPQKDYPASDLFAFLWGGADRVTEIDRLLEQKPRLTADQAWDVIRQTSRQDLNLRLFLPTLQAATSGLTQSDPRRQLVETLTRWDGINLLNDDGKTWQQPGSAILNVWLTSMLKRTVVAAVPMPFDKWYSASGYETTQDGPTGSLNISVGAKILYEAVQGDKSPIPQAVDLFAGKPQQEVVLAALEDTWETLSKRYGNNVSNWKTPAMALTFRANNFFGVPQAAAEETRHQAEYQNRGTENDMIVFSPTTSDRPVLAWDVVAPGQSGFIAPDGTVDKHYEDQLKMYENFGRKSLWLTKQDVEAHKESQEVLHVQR
T2 sequence (P06875 27-235): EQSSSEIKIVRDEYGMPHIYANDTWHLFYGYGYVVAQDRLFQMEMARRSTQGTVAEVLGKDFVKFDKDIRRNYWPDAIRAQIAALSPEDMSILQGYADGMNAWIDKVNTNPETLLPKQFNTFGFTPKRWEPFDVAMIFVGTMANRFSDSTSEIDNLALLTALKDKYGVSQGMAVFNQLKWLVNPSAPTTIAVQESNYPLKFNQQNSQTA
Text: as §1, §2, §4, §5
An agarose based penicillin G acylase immobilizate was employed in the following experiments. The immobilizate which was kept in water was drained of excess water on a filter by applying suction for 1 min.

[3] = biological target: T1, immobilized penicillin G acylase from E. coli; experiment: Enzymatic amoxicillin synthesis with immobilized Pen G acylase, Phox concentration varied (Example 1); conditions: enzyme 8.6 U/ml
Text: as §1, §2, §4, §5

[4] = biological target: T1, immobilized penicillin G acylase from E. coli; experiment: Enzymatic amoxicillin synthesis with immobilized Pen G acylase and various enzyme modulators (Example 8); conditions: standard synthesis conditions; enzyme 13 U/ml
Text: as §2, §3, §4, §5
The compounds listed below improve synthesis performance (standard synthesis conditions, immobilized penicillin G acylase from E. coli; enzyme dosing 13 U/ml) in the sense that when they are present in the reaction mixture in a concentration within the interval specified, synthesis of the desired β-lactam antibiotic is favoured as compared to hydrolysis of the acylating agent: […]

[5] = biological target: T3, Boehringer Mannheim immobilized penicillin G acylase, experimental preparation (Escherichia coli, UniProt P06875); experiment: Enzymatic amoxicillin synthesis with immobilized Pen G acylase, 2-thiopheneacetic acid varied (Example 7); conditions: enzyme 12 U/ml
T3 construct: purchased Boehringer Mannheim (experimental preparation)
T3 sequence (P06875 27-235): as above
T3 sequence (P06875 290-846): as the sequence (P06875 290-846) above
Text: as §1, §2, §3, §4, §5
A standard synthesis (Boehringer Mannheim immobilized penicillin G acylase, experimental preparation; enzyme dosing 12 U/ml) was carried out with no 2-thiopheneacetic acid added.
Same conditions as in Experiment A were employed, except that 2-thiopheneacetic acid was added to the reaction mixture at the beginning of the experiment in amounts as specified in Table 7.

[6] = Exp B, [L-(+)-Mandelic acid] 0.64 mM
[7] = Exp C, [L-(+)-Mandelic acid] 3.3 mM
[8] = Exp D, [L-(+)-Mandelic acid] 6.7 mM
[9] = Exp E, [L-(+)-Mandelic acid] 13.3 mM
[10] = Exp F, [L-(+)-Mandelic acid] 14.2 mM
[11] = Exp G, [L-(+)-Mandelic acid] 36.1 mM
[12] = Exp A, [Phox] 2.6 μM (residual, none added)
[13] = Exp B, [Thiopheneacetic acid] 0.03 mM
[14] = Exp C, [Thiopheneacetic acid] 0.3 mM

T1 sequence (P06875 27-235): as the sequence (P06875 27-235) above
T1 sequence (P06875 290-846): as the sequence (P06875 290-846) above

O=C(O)[C@@H](O)c1ccccc1 [L-(+)-Mandelic acid, L-(+)-mandelic acid]
Initial velocity V0 (Amox) [1, 6]: 156 nmoles/min/U
Initial velocity V0 (D-HPG) [1, 6]: 207 nmoles/min/U
Reaction stop time [1, 6]: 2.4 h
X at reaction stop time [1, 6]: 2.9
Initial velocity V0 (Amox) [1, 7]: 137 nmoles/min/U
Initial velocity V0 (D-HPG) [1, 7]: 174 nmoles/min/U
Reaction stop time [1, 7]: 2.8 h
X at reaction stop time [1, 7]: 2.8
Initial velocity V0 (Amox) [1, 8]: 119 nmoles/min/U
Initial velocity V0 (D-HPG) [1, 8]: 146 nmoles/min/U
Reaction stop time [1, 8]: 3.0 h
X at reaction stop time [1, 8]: 2.65
Initial velocity V0 (Amox) [1, 9]: 89 nmoles/min/U
Initial velocity V0 (D-HPG) [1, 9]: 110 nmoles/min/U
Reaction stop time [1, 9]: 4.7 h
X at reaction stop time [1, 9]: 2.65
Initial velocity V0 (Amox) [1, 10]: 80 nmoles/min/U
Initial velocity V0 (D-HPG) [1, 10]: 106 nmoles/min/U
Reaction stop time [1, 10]: 4.2 h
X at reaction stop time [1, 10]: 2.8
Initial velocity V0 (Amox) [1, 11]: 49 nmoles/min/U
Initial velocity V0 (D-HPG) [1, 11]: 68 nmoles/min/U
Reaction stop time [1, 11]: 5.5 h
X at reaction stop time [1, 11]: 2.8
optimal concentration with respect to minimization of the ratio X ([1]; under the conditions chosen): 3.3 to 14.2 mM

O=C(O)COc1ccccc1 [Phox, phenoxyacetic acid]
Initial velocity V0 (Amox) ([2]; Exp A, enzyme dosage 11.9 U/ml): 1.17 µmol/min/mL
X at stop time ([2]; Exp A, enzyme dosage 11.9 U/ml): 1.75
Initial velocity V0 (Amox) ([2]; Exp B, enzyme dosage 23.8 U/ml): 2.97 µmol/min/mL
Initial velocity V0 (D-HPG) ([2]; Exp B, enzyme dosage 23.8 U/ml): 1.85 µmol/min/mL
Initial velocity V0 (D-HPG) ([2]; Exp C, enzyme dosage 47.5 U/ml): ca. 5.6 μmoles/min/ml
X at stop time ([2]; Exp C, enzyme dosage 47.5 U/ml): ca. 2.0
Initial velocity V0 (Amox) [3, 12]: 17.7 µmol/min/g
Initial velocity V0 (D-HPG) [3, 12]: 25.0 µmol/min/g
Reaction stop time [3, 12]: 2.1 h
X at reaction stop time [3, 12]: 2.9
Initial velocity V0 (Amox) ([3]; Exp B, [Phox] 9.9 μM): 13.1 µmol/min/g
Initial velocity V0 (D-HPG) ([3]; Exp B, [Phox] 9.9 μM): 16.5 µmol/min/g
Reaction stop time ([3]; Exp B, [Phox] 9.9 μM): 3.3 h
X at reaction stop time ([3]; Exp B, [Phox] 9.9 μM): 2.7
Initial velocity V0 (Amox) ([3]; Exp C, [Phox] 16.8 μM): 11.9 µmol/min/g
Initial velocity V0 (D-HPG) ([3]; Exp C, [Phox] 16.8 μM): 13.8 µmol/min/g
Reaction stop time ([3]; Exp C, [Phox] 16.8 μM): 4.1 h
X at reaction stop time ([3]; Exp C, [Phox] 16.8 μM): 2.55
Initial velocity V0 (Amox) ([3]; Exp D, [Phox] 31.0 μM): 8.8 µmol/min/g
Initial velocity V0 (D-HPG) ([3]; Exp D, [Phox] 31.0 μM): 8.8 µmol/min/g
Reaction stop time ([3]; Exp D, [Phox] 31.0 μM): 5.7 h
X at reaction stop time ([3]; Exp D, [Phox] 31.0 μM): 2.35
Initial velocity V0 (Amox) ([3]; Exp E, [Phox] 61.7 μM): 6.5 µmol/min/g
Initial velocity V0 (D-HPG) ([3]; Exp E, [Phox] 61.7 μM): 5.4 µmol/min/g
Reaction stop time ([3]; Exp E, [Phox] 61.7 μM): 9.5 h

CC1(C)S[C@@H]2[C@H](NC(=O)Cc3ccccc3)C(=O)N2[C@H]1C(=O)O [Penicillin G]
Concentration interval where improvement of ratio X is found [4]: 2 to 1000 µM

O=S(=O)(F)Cc1ccccc1 [Phenylmethylsulfonyl fluoride]
Concentration interval where improvement of ratio X is found [4]: 0.2 to 10 µM

O=C(O)COc1ccc(O)cc1 [p-Hydroxyphenoxyacetic acid]
Concentration interval where improvement of ratio X is found [4]: 2 to 500 µM

O=C(O)Cc1cccs1 [Thiopheneacetic acid, 2-thiopheneacetic acid]
Initial velocity V0 (Amox) [5, 13]: 1.68 µmol/min/mL
Initial velocity V0 (D-HPG) [5, 13]: 1.95 µmol/min/mL
Reaction stop time [5, 13]: 2.3 h
X at reaction stop time [5, 13]: 2.7
Initial velocity V0 (Amox) [5, 14]: 0.15 µmol/min/mL
Initial velocity V0 (D-HPG) [5, 14]: 0.058 µmol/min/mL
Reaction stop time [5, 14]: 12 h
X at reaction stop time [5, 14]: 1.6
